Assays:
ABUTH [1] = experiment: Pre-emergence herbicidal action against ABUTH; assay type: in vivo, Abutilon theophrasti
Procedure, shortened: (§1)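 Greenhouse pots of sandy loam held seeds covered with soil, onto which the compound was applied before emergence. An aqueous suspension or emulsion of WP or EC was used at 600 to 800 l/ha with 0.2% wetting agent. Percent damage was judged visually at 3 weeks.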

ALOMY = experiment: Pre-emergence herbicidal action against ALOMY; assay type: in vivo, Alopecurus myosuroides; conditions: 80 g/ha, pre-emergence, scored visually after 3 weeks vs untreated controls (100% = plants have died, 0% = like control plants)
Procedure, shortened: as §1

AMARE [2] = experiment: Pre-emergence herbicidal action against AMARE; assay type: in vivo, Amaranthus retroflexus
Procedure, shortened: as §1

AVEFA = experiment: Pre-emergence herbicidal action against AVEFA; assay type: in vivo, Avena fatua; conditions: 80 g/ha, pre-emergence
Procedure, shortened: as §1

ECHCG [3] = experiment: Pre-emergence herbicidal action against ECHCG; assay type: in vivo, Echinochloa crus-galli; conditions: 80 g/ha
Procedure, shortened: as §1

HORMU = experiment: Pre-emergence herbicidal action against HORMU; assay type: in vivo, Hordeum murinum; conditions: 80 g/ha, pre-emergence
Procedure, shortened: as §1

MATIN = experiment: Pre-emergence herbicidal action against MATIN; assay type: in vivo, Matricaria inodora
Procedure, shortened: as §1

POLCO [4] = experiment: Pre-emergence herbicidal action against POLCO; assay type: in vivo, Polygonum convolvulus; conditions: dosage 80 g/ha
Procedure, shortened: as §1

SETVI [5] = experiment: Pre-emergence herbicidal action against SETVI; assay type: in vivo, Setaria viridis; conditions: dosage 80 g/ha
Procedure, shortened: as §1

STEME [6] = experiment: Pre-emergence herbicidal action against STEME; assay type: in vivo, Stellaria media
Procedure, shortened: as §1

VIOTR [7] = experiment: Pre-emergence herbicidal action against VIOTR; assay type: in vivo, Viola tricolor; conditions: dosage 80 g/ha
Procedure, shortened: as §1

DIGSA [8] = experiment: Pre-emergence herbicidal action against DIGSA; assay type: in vivo, Digitaria sanguinalis
Procedure, shortened: as §1

ABUTH [9] = experiment: Post-emergence herbicidal action against ABUTH; assay type: in vivo, Abutilon theophrasti; conditions: visual assessment about 3 weeks after treatment vs untreated controls
Procedure, shortened: (§2)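 Foliar application at one-leaf stage of formulated test compounds, aqueous spray at 600–800 l/ha with 0.2% wetting agent. Greenhouse, optimal conditions, ~3 weeks; damage scored visually in % relative to untreated plants.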

AMARE [10] = experiment: Post-emergence herbicidal action against AMARE; assay type: in vivo, Amaranthus retroflexus; conditions: 20 g/ha, visual assessment about 3 weeks after treatment, 100% = plants have died, 0% = like control plants
Procedure, shortened: as §2

ECHCG [11] = experiment: Post-emergence herbicidal action against ECHCG; assay type: in vivo, Echinochloa crus-galli
Procedure, shortened: as §2

PHBPU = experiment: Post-emergence herbicidal action against PHBPU; assay type: in vivo, Pharbitis purpurea; conditions: dosage 20 g/ha
Procedure, shortened: as §2

POLCO [12] = experiment: Post-emergence herbicidal action against POLCO; assay type: in vivo, Polygonum convolvulus; conditions: dosage 20 g/ha
Procedure, shortened: as §2

SETVI [13] = experiment: Post-emergence herbicidal action against SETVI; assay type: in vivo, Setaria viridis; conditions: dosage 20 g/ha
Procedure, shortened: as §2

STEME [14] = experiment: Post-emergence herbicidal action against STEME; assay type: in vivo, Stellaria media; conditions: 20 g/ha
Procedure, shortened: as §2

VIOTR [15] = experiment: Post-emergence herbicidal action against VIOTR; assay type: in vivo, Viola tricolor; conditions: 20 g/ha
Procedure, shortened: as §2

DIGSA [16] = experiment: Post-emergence herbicidal action against DIGSA; assay type: in vivo, Digitaria sanguinalis
Procedure, shortened: as §2

[17] = 80 g/ha, scored visually after 3 weeks vs untreated controls (100% = plants have died, 0% = like control plants)

Structure (SMILES): CCNC(=O)c1c(C(F)(F)F)ccc(C(=O)Nc2nnc(C)o2)c1C [Example 6-26]
- Pre-emergence action against ABUTH (herbicidal activity) (ABUTH [1]; [17]): 100%
- Pre-emergence action against ABUTH (herbicidal activity in percent) (ABUTH [1]; dosage 20 g/ha, scored visually after 3 weeks vs untreated controls, 100% = plants have died, 0% = like control plants): 100%
- Pre-emergence action against ALOMY (herbicidal activity) (ALOMY): 80%
- Pre-emergence action against AMARE in % (AMARE [2]; 20 g/ha, scored visually after 3 weeks vs untreated controls, 100% = plants have died, 0% = like control plants): 100%
- Pre-emergence action against AMARE in % (AMARE [2]; [17]): 100%
- Pre-emergence action against AVEFA in % (AVEFA): 80%
- Pre-emergence action against ECHCG in % (ECHCG [3]): 100%
- Pre-emergence action against HORMU in % (HORMU): 80%
- Pre-emergence action against MATIN in % (MATIN; dosage 20 g/ha): 80%
- Pre-emergence action against MATIN in % (MATIN; dosage 80 g/ha): 90%
- Pre-emergence action against POLCO in % (POLCO [4]): 100%
- Pre-emergence action against SETVI in % (SETVI [5]): 100%
- Pre-emergence action against STEME in % (STEME [6]; dosage 20 g/ha): 80%
- Pre-emergence action against STEME in % (STEME [6]; dosage 80 g/ha): 100%
- Pre-emergence action against VIOTR in % (VIOTR [7]): 100%
- Pre-emergence action against DIGSA in % (DIGSA [8]; dosage 20 g/ha): 100%
- Pre-emergence action against DIGSA in % (DIGSA [8]; dosage 80 g/ha): 100%
- Post-emergence action against ABUTH in % (ABUTH [9]; dosage 5 g/ha): 90%
- Post-emergence action against ABUTH in % (ABUTH [9]; dosage 20 g/ha): 90%
- Post-emergence action at 20 g/ha against AMARE in % (AMARE [10]): 100%
- Post-emergence action against ECHCG in % (ECHCG [11]; dosage 5 g/ha): 80%
- Post-emergence action against ECHCG in % (ECHCG [11]; dosage 20 g/ha): 90%
- Post-emergence action against PHBPU in % (PHBPU): 80%
- Post-emergence action against POLCO in % (POLCO [12]): 80%
- Post-emergence action against SETVI in % (SETVI [13]): 80%
- Post-emergence action against STEME in % (STEME [14]): 80%
- Post-emergence action against VIOTR in % (VIOTR [15]): 100%
- Post-emergence action against DIGSA in % (DIGSA [16]; 5 g/ha): 90%
- Post-emergence action against DIGSA (DIGSA [16]; 20 g/ha): 90%

Source: patent US12655116B2, “Substituted isophthalic acid diamides” (Bayer Aktiengesellschaft, priority 2020, dated 2026)
